The structures appear in SMILES notation. A value given as a limit tells only on which side of the number the result lay.

One series relates to Bel-7402. As to the kind of experiment: MTT assay, Bel-7402 cells. It is filed as cell-based, human. The note with it: Homo sapiens, Bel-7402, 72 h incubation, read-out: Half maximal inhibitory concentration (IC50) values, Bel-7402. An excerpt: (§1) The human hepatocellular carcinoma cell line (HepG2), human hepatocellular carcinoma cell line (Bel-7402), human cervical cancer cell line (Hela), human breast adenocarcinoma cell line (MCF-7) and Madin-Darby canine kidney cell line (MDCK) were obtained from the Chinese Academy of Medical Sciences and Peking Union Medical College. Cultures were maintained as monolayer in RPMI-1640/DMEM supplemented with 10% (v/v) fetal bovine serum (FBS) and 1% (v/v) penicillin/streptomycin (Thermo Technologies, New York, NY, United States) under a humidified atmosphere containing 5% CO2 at 37°C. The BoA derivatives and positive control drugs (BoA and DDP) under study were dissolved in DMSO (Sigma, St. Louis, MO, United States) and added at required concentrations to the cell culture. Cells incubated without the preparations served as the control.
(§2) The antitumor activity was assessed by MTT assay, as previously reported ([Fang et al., 2018]). Each tested compound and positive control drugs were dissolved in DMSO and diluted with the medium to the test concentrations, and the final concentration of DMSO in the culture medium was controlled at less than 0.5% (v/v). Briefly, cells were cultured at 37°C and dispersed in replicates in 96-well plates with HepG2, Bel-7402, HeLa, MCF-7 and MDCK for 24 h. Fresh medium along with compounds (BoAA-BoAE, BoA2A-BoA2G, BoA3A-BoA3G, BoA4A-BoA4G) at different concentrations was then added to individual wells and incubated for 72 h, with BoA and DDP as the positive control. Experiments on FXR expression were separated into three groups: Control (PBS), BoA2C (8 μM), and BoA2C (8 μM) + DY268 (10 μM) ([Giordano et al., 2016]), with three repeating wells in each. In separate wells, BoA2C and DY268 were introduced and cultured for 72 h. After 72 h, the cell was incubated with MTT solution (0.5 mg/ml) for an additional 4 h at 37°C. The produced formazan crystals were solubilized with DMSO, and the optical density of solution was measured at 570 nm using a plate reader (BIORAD 550 spectrophotometer, Bio-rad Life Science Development Ltd., Beijing, China). Wells without drugs were used to be blanks. The IC50 values were defined as the concentration of compounds that produced a 50% proliferation inhibition of surviving cells and calculated using the Graph Pad Prism 5. The inhibitory rate was calculated in the following Equation 1, where OD is the optical density: % inhibition=[1−(OD Sample group−OD Blank group)/(OD Control group−OD Blank group)]×100% (1)

The next series deals with MCF-7. As to the kind of experiment: MTT assay, MCF-7 cells. The class given is cell-based, human. Particulars: Homo sapiens, MCF7, 72 h incubation, read-out: Half maximal inhibitory concentration (IC50) values, MCF-7.
Description: as §1, §2
(In general: Tetrazolium assays rely on reduction of a dye to a coloured formazan, in cell work by metabolically active cells.)

A further series relates to Hela. As to the kind of experiment: MTT assay, Hela cells. The class given is cell-based, human. The note with it: Homo sapiens, HeLa, 72 h incubation, read-out: Half maximal inhibitory concentration (IC50) values, Hela.
Description: as §1, §2

The subject of another series is MDCK cells. As to the kind of experiment: DAPI staining of nuclear changes, MDCK. The class given is cell-based, canine. The note with it: MDCK cells, 2, 4, 8 μM.
In a further series the test system is MCF-7 cells. The series can be described thus: DAPI staining of nuclear changes, MCF-7. It is filed as cell-based, human. Particulars: MCF-7 cells, 2, 4, 8 μM, 72 h. On the procedure: Morphological observation of nuclear changes was performed by DAPI staining in this assay. MCF-7 cells in the logarithmic growth phase were seeded in 12-well plates at a density of 5 × 10^3 cells/well and were allowed to grow for 24 h. Then the cells were treated with different concentration ranges of BoA2C (0, 2, 4 8 μM) for 72 h. After the treatment period, cells were washed with PBS and fixed with 4% paraformaldehyde for 10 min. Then the liquid was discarded, and the cells were stained with DAPI (1 mg/ml, Molecular Probes/Invitrogen Life Technologies, Carlsbad, CA, United States) for 1 min in dark. After staining, cells were visualized under a fluorescence microscope (Olympus IX71, Tokyo, Japan).

A further series concerns MDCK. The series can be described thus: MTT assay, MDCK normal cell line. The class given is cell-based, canine.
Description: as §1, §2

Another series has as its system HepG2. As to the kind of experiment: MTT assay, HepG2 cells. It is filed as cell-based, human. The note with it: Homo sapiens, HepG2, 72 h incubation, read-out: Half maximal inhibitory concentration (IC50) values, HepG2.
Description: as §1, §2

Regarding `C=C(C)[C@@H]1CC[C@]2(C(=O)OCCOC(=O)c3cnc(C)cn3)CC[C@]3(C)[C@H](CC[C@@H]4[C@@]5(C)CCC(=O)C(C)(C)[C@@H]5CC[C@]43C)[C@@H]12` [BoA2C, (5-Methylpyrazin-2-acyloxy)-ethyl-3-oxolup-20(29)-en-28-oate], the melting point (as a rule, the temperature, or range, at which the solid turns liquid) fell in the range of 139 to 141 °C. Further, the IC50 in the series with Bel-7402 came out at 3.65 ± 0.43 µM. For the same compound, in the series on MCF-7, the IC50 was 3.39 ± 0.07 µM. In the series with Hela, the IC50 came to 15.6 ± 2.63 µM. Also, the “nuclear damage (DAPI staining)” value in the series on MDCK cells is “did not show a significant nuclear damage”. The “nuclear morphological changes (DAPI staining)” value in the series on MCF-7 cells is given as “nuclear morphological changes typical of apoptosis in a dose-dependent manner”. The “cytotoxicity on MDCK cell line compared with DDP (cisplatin)” value in the series with MDCK (72 h) was “lower cytotoxicity on MDCK cell line than cisplatin”. Besides, the IC50 in the series on MDCK (Canis lupus familiaris, MDCK, 72 h incubation, normal cell line, read-out: Half maximal inhibitory concentration (IC50) values, MDCK) was greater than 30 µM. For the same compound, in the series on HepG2, the IC50 came to 7.46 ± 1.43 µM.

The values above are taken from article PMC9486541, “Design, synthesis and cytotoxic evaluation of novel betulonic acid-diazine derivatives as potential antitumor agents” (Frontiers in Chemistry, 2022).
